The values that follow are results of earlier work, collected in EP4796171A2 (Zealand Pharma A/S, priority 2017, dated 2018).

The conditions of the data set: background statement; cited from earlier work.

With `CC[C@H](C)[C@H](NC(=O)[C@H](Cc1ccccc1)NC(=O)[C@H](CC(=O)O)NC(=O)[C@H](CCCNC(=N)N)NC(=O)[C@H](C)NC(=O)[C@H](C)NC(=O)[C@H](CC(C)C)NC(=O)[C@H](CC(N)=O)NC(=O)[C@H](CC(=O)O)NC(=O)[C@H](CC(C)C)NC(=O)[C@@H](NC(=O)[C@@H](NC(=O)[C@H](CC(N)=O)NC(=O)[C@H](CCSC)NC(=O)[C@H](CCC(=O)O)NC(=O)[C@H](CC(=O)O)NC(=O)[C@H](CO)NC(=O)[C@H](Cc1ccccc1)NC(=O)[C@H](CO)NC(=O)CNC(=O)[C@H](CC(=O)O)NC(=O)CNC(=O)[C@@H](N)Cc1c[nH]cn1)[C@@H](C)O)[C@@H](C)CC)C(=O)N[C@@H](CC(N)=O)C(=O)N[C@@H](Cc1c[nH]c2ccccc12)C(=O)N[C@@H](CC(C)C)C(=O)N[C@H](C(=O)N[C@@H](CCC(N)=O)C(=O)N[C@H](C(=O)N[C@@H](CCCCN)C(=O)N[C@H](C(=O)N[C@H](C(=O)N[C@@H](CC(=O)O)C(=O)O)[C@@H](C)O)[C@@H](C)CC)[C@@H](C)O)[C@@H](C)CC` [Teduglutide], the Half-life result is “about two”.
